These results are taken from ChEMBL document CHEMBL1126862, “Substituted 3-phenylpiperidines: new centrally acting dopamine autoreceptor antagonists” (J Med Chem, 1993).

The target of test [1] is T1, D(2) dopamine receptor (Bos taurus, UniProt P20288). Briefly: Evaluated for binding towards Dopamine receptor D2 using [3H]-spiperone as radioligand, in cloned mammalian receptors expressed in CHO-K1 cells. The test is classed as cell-based.
Test [2] has as its target T2, D(2) dopamine receptor (Rattus norvegicus, UniProt P61169). Nature of the test: Evaluated for binding towards Dopamine receptor D2 using [3H]N-0437 as radioligand from rat striatal membrane.
Test [3] addresses T2, D(2) dopamine receptor. Briefly: Binding towards Dopamine receptor D2 using [3H]spiperone from rat striatal membrane.
Test [4] deals with Rattus norvegicus. Briefly: Evaluated for DOPA accumulation in limbic region of nonpretreated rat at 52 umol / kg administered subcutaneously. In kind it is functional, Limbic system.
For test [5], the system named is Rattus norvegicus. Nature of the test: Evaluated for DOPA accumulation in limbic region of nonpretreated rat at 13 umol / kg administered subcutaneously. In kind it is functional, Limbic system.
Test [6] relates to Rattus norvegicus. Briefly: Evaluated for rat locomotor activity in nonhabituated rats at 52 umol / kg administered subcutaneously. The test is classed as functional.
For test [7], the species on record is Rattus norvegicus. Briefly: Evaluated for rat locomotor activity in nonpretreated habituated rats at 25 umol / kg. The test is classed as functional.
In test [8] the test system is Rattus norvegicus. Briefly: Evaluated for DOPA accumulation in limbic region of reserpine pretreated rat at 52 umol / kg administered subcutaneously. In kind it is functional, Limbic system.
For test [9], the system named is Rattus norvegicus. Briefly: Evaluated for DOPA accumulation in striatum of nonpretreated rat at 13 umol / kg administered subcutaneously. The test is classed as functional.
In test [10] the test system is Rattus norvegicus. Briefly: Evaluated for DOPA accumulation in striatum of nonpretreated rat at 52 umol / kg administered subcutaneously. In kind it is functional.
In test [11] the test system is Rattus norvegicus. Briefly: Evaluated for DOPA accumulation in striatum of reserpine pretreated rat at 52 umol / kg administered subcutaneously. The test is classed as functional.
The test system of test [12] is Rattus norvegicus. Briefly: Evaluated in rat accumbens for the effect on dopamine release and metabolism in brain dialysis model after administration of 50 umol / kg subcutaneously. In kind it is functional.
The test system of test [13] is Rattus norvegicus. Briefly: Evaluated in rat accumbens for the effect onDOPAC release and metabolism in brain dialysis model after administration of 50 umol / kg subcutaneously. The test is classed as functional.
In test [14] the test system is Rattus norvegicus. Briefly: Evaluated in rat striatum for the effect on DOPAC release and metabolism in brain dialysis model after administration of 50 umol / kg subcutaneously. More on the design: unit not given beside the values. In kind it is functional.
Test [15] deals with Rattus norvegicus. Nature of the test: Evaluated in rat striatum for the effect on dopamine release and metabolism in brain dialysis model after administration of 50 umol / kg subcutaneously. The test is classed as functional. More on the design: unit not given beside the values.
In test [16] the test system is Rattus norvegicus. Briefly: Evaluated for rat locomotor activity in nonhabituated rats at 13 umol / kg administered subcutaneously. In kind it is functional.
The species entered for test [17] is Rattus norvegicus. Briefly: Rat locomotor activity in reserpine pretreated rats and accumulated counts / 30 min is calculated. In kind it is functional.
For test [18], the target named is T1, D(2) dopamine receptor. Briefly: Binding towards Dopamine receptor D2 expressed in CHO-K1 cells using [3H]U-86170. In kind it is cell-based.
The species entered for test [19] is Rattus norvegicus. Briefly: Evaluated for rat locomotor activity in nonpretreated habituated rats at 100 umol / kg. The test is classed as functional. More on the design: unit not given beside the values.
The target of a further test is D(3) dopamine receptor (Homo sapiens, UniProt P35462).
Chain of D(3) dopamine receptor (P35462 whole entry): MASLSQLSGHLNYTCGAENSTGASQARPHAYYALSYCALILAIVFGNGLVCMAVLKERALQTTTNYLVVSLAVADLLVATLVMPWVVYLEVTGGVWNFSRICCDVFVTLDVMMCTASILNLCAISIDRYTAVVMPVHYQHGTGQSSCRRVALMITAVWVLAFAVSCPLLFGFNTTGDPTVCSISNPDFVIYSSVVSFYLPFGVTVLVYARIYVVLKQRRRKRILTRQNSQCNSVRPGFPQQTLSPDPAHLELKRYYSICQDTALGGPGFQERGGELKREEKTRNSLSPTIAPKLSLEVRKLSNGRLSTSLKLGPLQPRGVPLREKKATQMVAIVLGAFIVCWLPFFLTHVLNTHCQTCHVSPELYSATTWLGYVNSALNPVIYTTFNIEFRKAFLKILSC
The target of the next test is T3, D(4) dopamine receptor (Homo sapiens, UniProt P21917).
T3 sequence (P21917 whole entry): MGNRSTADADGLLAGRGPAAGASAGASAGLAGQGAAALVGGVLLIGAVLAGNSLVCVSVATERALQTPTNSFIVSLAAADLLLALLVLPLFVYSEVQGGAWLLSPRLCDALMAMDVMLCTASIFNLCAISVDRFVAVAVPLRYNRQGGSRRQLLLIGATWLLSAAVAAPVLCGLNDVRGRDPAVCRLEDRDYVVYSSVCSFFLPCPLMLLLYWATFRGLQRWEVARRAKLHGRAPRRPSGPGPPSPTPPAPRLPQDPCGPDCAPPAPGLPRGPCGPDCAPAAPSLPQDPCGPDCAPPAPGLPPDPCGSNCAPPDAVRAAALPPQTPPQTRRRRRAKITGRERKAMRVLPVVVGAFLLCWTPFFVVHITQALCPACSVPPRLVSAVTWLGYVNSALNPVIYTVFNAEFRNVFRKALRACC

Structures are written as SMILES.

T1 sequence (P20288 whole entry): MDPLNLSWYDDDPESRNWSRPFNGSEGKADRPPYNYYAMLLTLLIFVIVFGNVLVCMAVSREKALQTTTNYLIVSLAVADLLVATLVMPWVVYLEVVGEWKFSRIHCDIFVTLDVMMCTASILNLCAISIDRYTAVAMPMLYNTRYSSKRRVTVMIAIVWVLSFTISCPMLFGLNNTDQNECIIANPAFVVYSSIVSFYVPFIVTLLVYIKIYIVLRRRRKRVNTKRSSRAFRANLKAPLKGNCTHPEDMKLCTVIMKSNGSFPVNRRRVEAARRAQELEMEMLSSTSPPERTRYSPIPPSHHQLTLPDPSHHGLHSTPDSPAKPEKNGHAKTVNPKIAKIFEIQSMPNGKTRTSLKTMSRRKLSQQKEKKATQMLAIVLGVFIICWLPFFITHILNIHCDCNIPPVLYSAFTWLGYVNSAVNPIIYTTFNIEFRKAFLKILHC
T2 sequence (P61169 whole entry): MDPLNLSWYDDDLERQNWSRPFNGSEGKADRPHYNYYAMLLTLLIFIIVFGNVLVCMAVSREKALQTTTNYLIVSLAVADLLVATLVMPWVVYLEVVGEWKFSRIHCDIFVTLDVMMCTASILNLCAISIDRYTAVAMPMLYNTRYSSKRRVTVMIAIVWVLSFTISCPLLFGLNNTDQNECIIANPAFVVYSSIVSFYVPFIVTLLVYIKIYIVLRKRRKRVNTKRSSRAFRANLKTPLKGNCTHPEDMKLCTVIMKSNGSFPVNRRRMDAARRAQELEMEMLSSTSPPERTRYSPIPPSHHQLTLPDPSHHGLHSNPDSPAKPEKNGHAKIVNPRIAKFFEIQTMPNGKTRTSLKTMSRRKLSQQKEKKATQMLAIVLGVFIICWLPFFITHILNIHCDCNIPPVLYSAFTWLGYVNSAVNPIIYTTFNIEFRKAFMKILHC
Description for D(3) dopamine receptor: Binding towards Dopamine receptor D3 expressed in CHO-K1 cells using [3H]spiperone
Description for D(4) dopamine receptor: Binding towards dopamine receptor D4 expressed in CHO-K1 cells using [3H]spiperone

For `CCCN[C@@H]1CCc2c(OC)cccc2[C@@H]1C`, the Ki (in general, a measure of affinity in units of concentration, obtained from inhibition or displacement) on D(2) dopamine receptor [1] was found to be 158 nM; on D(2) dopamine receptor [2], 300 nM; at D(2) dopamine receptor [3], 530 nM; on D(2) dopamine receptor [18] it was 145 nM; at D(3) dopamine receptor it was 26 nM; on D(4) dopamine receptor, 117 nM. For the same compound, the Activity with Rattus norvegicus [4] was 253; in the test on Rattus norvegicus [5], 223; in the test with Rattus norvegicus [6], 159; in the test filed under Rattus norvegicus [7], 300; with Rattus norvegicus [8], 108; in the test with Rattus norvegicus [9] it was 330. The Activity in the test on Rattus norvegicus [10] was 400; in the test with Rattus norvegicus [11], 102; in the test on Rattus norvegicus [12], 313; with Rattus norvegicus [13], 235; with Rattus norvegicus [14], 315; in the test with Rattus norvegicus [15] it was 285. The figures for the Activity in the test on Rattus norvegicus [16], in the test filed under Rattus norvegicus [17] and in the test filed under Rattus norvegicus [19] were 155, 11 and 350, respectively.
